Results reported in patent US10987359B2, “Oxadiazepinone derivatives and methods of treating hepatitis B infections” (priority 2016, dated 2021).
pEC50: −log10 of the molar value.

tested on: HBV; test: HBV replication inhibition assay (BDNA assay) in HepG2.2.15 cells; assay type: cell-based; settings: Hepatitis B virus, HepG2.2.15, HBV replication assay (BDNA assay), HepG2.2.15 cells; read-out: DNA EC50
Method in brief: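 HepG2.2.15 cells with stably integrated HBV were treated with serially diluted compounds at 0.5% DMSO for 6 days, with medium and compound refreshed at day 3. Encapsidated HBV DNA from DNase-treated supernatant was quantified by branched DNA assay. EC50 came from % inhibition versus DMSO, fitted non-linearly.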

Compound	pEC50
CN1OC(C(=O)N2CC(F)(F)C2)Cn2nc3c(c2C1=O)CN(C(=O)Nc1ccc(F)c(Cl)c1)CC3 (stereo not shown) [Compound 131, N-(3-chloro-4-fluorophenyl)-4-(3,3-difluoroazetidine-1-carbonyl)-2-methyl-1-oxo-1,4,5,8,9,11-hexahydropyrido[4′,3′:3,4]pyrazolo[5,1-d][1,2,5]oxadiazepine-10(2H)-carboxamide]	7.00 to 9.00
CN1OC(C(=O)N2CCC(F)(F)C2)Cn2nc3c(c2C1=O)CN(C(=O)Nc1ccc(F)c(Cl)c1)CC3 (stereo not shown) [Compound 132, N-(3-chloro-4-fluorophenyl)-4-(3,3-difluoropyrrolidine-1-carbonyl)-2-methyl-1-oxo-1,4,5,8,9,11-hexahydropyrido[4′,3′:3,4]pyrazolo[5,1-d][1,2,5]oxadiazepine-10(2H)-carboxamide]	7.00 to 9.00
CN(CC(F)(F)F)C(=O)C1Cn2nc3c(c2C(=O)N(C)O1)CN(C(=O)Nc1ccc(F)c(Cl)c1)CC3 (stereo not shown) [Compound 133, N10-(3-chloro-4-fluorophenyl)-N4,2-dimethyl-1-oxo-N4-(2,2,2-trifluoroethyl)-1,4,5,8,9,11-hexahydropyrido[4′,3′:3,4]pyrazolo[5,1-d][1,2,5]oxadiazepine-4,10(2H)-dicarboxamide]	7.00 to 9.00
CN(CC(F)F)C(=O)C1Cn2nc3c(c2C(=O)N(C)O1)CN(C(=O)Nc1ccc(F)c(Cl)c1)CC3 (stereo not shown) [Compound 134, N10-(3-chloro-4-fluorophenyl)-N4-(2,2-difluoroethyl)-N4,2-dimethyl-1-oxo-1,4,5,8,9,11-hexahydropyrido[4′,3′:3,4]pyrazolo[5,1-d][1,2,5]oxadiazepine-4,10(2H)-dicarboxamide]	7.00 to 9.00
CN1OC(C(=O)NCC(F)(F)F)Cn2nc3c(c2C1=O)CN(C(=O)Nc1ccc(F)c(Cl)c1)CC3 (stereo not shown) [Compound 135, N10-(3-chloro-4-fluorophenyl)-2-methyl-1-oxo-N4-(2,2,2-trifluoroethyl)-1,4,5,8,9,11-hexahydropyrido[4′,3′:3,4]pyrazolo[5,1-d][1,2,5]oxadiazepine-4,10(2H)-dicarboxamide]	7.00 to 9.00
CN1OC(C(=O)NCC(F)F)Cn2nc3c(c2C1=O)CN(C(=O)Nc1ccc(F)c(Cl)c1)CC3 (stereo not shown) [Compound 136, N10-(3-chloro-4-fluorophenyl)-N4-(2,2-difluoroethyl)-2-methyl-1-oxo-1,4,5,8,9,11-hexahydropyrido[4′,3′:3,4]pyrazolo[5,1-d][1,2,5]oxadiazepine-4,10(2H)-dicarboxamide]	7.00 to 9.00
CN(CC(F)F)C(=O)C1Cn2nc3c(c2C(=O)N(C)O1)CN(C(=O)Nc1ccc(F)c(Cl)c1F)CC3 (stereo not shown) [Compound 158, N10-(3-chloro-2,4-difluorophenyl)-N4-(2,2-difluoroethyl)-N4,2-dimethyl-1-oxo-1,4,5,8,9,11-hexahydropyrido[4′,3′:3,4]pyrazolo[5,1-d][1,2,5]oxadiazepine-4,10(2H)-dicarboxamide]	7.00 to 9.00
CN(CC(F)F)C(=O)C1Cn2nc3c(c2C(=O)N(C)O1)CN(C(=O)Nc1cc(Cl)c(F)cc1F)CC3 (stereo not shown) [Compound 159, N10-(5-chloro-2,4-difluorophenyl)-N4-(2,2-difluoroethyl)-N4,2-dimethyl-1-oxo-1,4,5,8,9,11-hexahydropyrido[4′,3′:3,4]pyrazolo[5,1-d][1,2,5]oxadiazepine-4,10(2H)-dicarboxamide]	7.00 to 9.00
CN(CC(F)F)C(=O)C1Cn2nc3c(c2C(=O)N(C)O1)CN(C(=O)Nc1ccc(F)c(C#N)c1)CC3 (stereo not shown) [Compound 160, N10-(3-cyano-4-fluorophenyl)-N4-(2,2-difluoroethyl)-N4,2-dimethyl-1-oxo-1,4,5,8,9,11-hexahydropyrido[4′,3′:3,4]pyrazolo[5,1-d][1,2,5]oxadiazepine-4,10(2H)-dicarboxamide]	7.00 to 9.00
CN(CC(F)F)C(=O)C1Cn2nc3c(c2C(=O)N(C)O1)CN(C(=O)Nc1ccc(F)c(C#N)c1F)CC3 (stereo not shown) [Compound 161, N10-(3-cyano-2,4-difluorophenyl)-N4-(2,2-difluoroethyl)-N4,2-dimethyl-1-oxo-1,4,5,8,9,11-hexahydropyrido[4′,3′:3,4]pyrazolo[5,1-d][1,2,5]oxadiazepine-4,10(2H)-dicarboxamide]	7.00 to 9.00
CC(=O)NCC1Cn2nc3c(c2C(=O)N(C)O1)CN(C(=O)Nc1ccc(F)c(Cl)c1)CC3 (stereo not shown) [Compound 162, -(acetamidomethyl)-N-(3-chloro-4-fluoro-phenyl)-2-methyl-1-oxo-5,8,9,11-tetrahydro-4H-pyrido[2,3]pyrazolo[2,4-d][1,2,5]oxadiazepine-10-carboxamide]	7.00 to 9.00
CN1OC(CNS(=O)(=O)C(F)(F)F)Cn2nc3c(c2C1=O)CN(C(=O)Nc1ccc(F)c(Cl)c1)CC3 (stereo not shown) [Compound 164, N-(3-chloro-4-fluorophenyl)-2-methyl-1-oxo-4-(((trifluoromethyl)sulfonamido)methyl)-1,4,5,8,9,11-hexahydropyrido[4′,3′:3,4]pyrazolo[5,1-d][1,2,5]oxadiazepine-10(2H)-carboxamide]	6.30 to 7.00
CN1OC(CNS(C)(=O)=O)Cn2nc3c(c2C1=O)CN(C(=O)Nc1ccc(F)c(Cl)c1)CC3 (stereo not shown) [Compound 165, N-(3-chloro-4-fluorophenyl)-2-methyl-4-(methylsulfonamidomethyl)-1-oxo-1,4,5,8,9,11-hexahydropyrido[4′,3′:3,4]pyrazolo[5,1-d][1,2,5]oxadiazepine-10(2H)-carboxamide]	7.00 to 9.00
COC(=O)NCC1Cn2nc3c(c2C(=O)N(C)O1)CN(C(=O)Nc1ccc(F)c(Cl)c1)CC3 (stereo not shown) [Compound 166, methyl((10-((3-chloro-4-fluorophenyl)carbamoyl)-2-methyl-1-oxo-1,2,4,5,8,9,10,11-octahydropyrido[4′,3′:3,4]pyrazolo[5,1-d][1,2,5]oxadiazepin-4-yl)methyl)carbamate]	7.00 to 9.00
CNC(=O)C1Cn2nc3c(c2C(=O)N(C)O1)CN(C(=O)Nc1ccc(F)c(C#N)c1F)CC3 (stereo not shown) [Compound 195, N10-(3-cyano-2,4-difluorophenyl)-N4,2-dimethyl-1-oxo-1,4,5,8,9,11-hexahydropyrido[4′,3′:3,4]pyrazolo[5,1-d][1,2,5]oxadiazepine-4,10(2H)-dicarboxamide]	7.00 to 9.00
CCC(=O)NCC1Cn2nc3c(c2C(=O)N(C)O1)CN(C(=O)Nc1ccc(F)c(Cl)c1)CC3 (stereo not shown) [Compound 197, N-(3-chloro-4-fluorophenyl)-2-methyl-1-oxo-4-(propionamidomethyl)-1,4,5,8,9,11-hexahydropyrido[4′,3′:3,4]pyrazolo[5,1-d][1,2,5]oxadiazepine-10(2H)-carboxamide]	7.00 to 9.00
CN1OC(CNC(=O)C2CC2)Cn2nc3c(c2C1=O)CN(C(=O)Nc1ccc(F)c(Cl)c1)CC3 (stereo not shown) [Compound 198, N-(3-chloro-4-fluorophenyl)-4-(cyclopropanecarboxamidomethyl)-2-methyl-1-oxo-1,4,5,8,9,11-hexahydropyrido[4′,3′:3,4]pyrazolo[5,1-d][1,2,5]oxadiazepine-10(2H)-carboxamide]	7.00 to 9.00
CN1OC(CNC(=O)CC(F)(F)F)Cn2nc3c(c2C1=O)CN(C(=O)Nc1ccc(F)c(Cl)c1)CC3 (stereo not shown) [Compound 199, N-(3-chloro-4-fluorophenyl)-2-methyl-1-oxo-4-((3,3,3-trifluoropropanamido)methyl)-1,4,5,8,9,11-hexahydropyrido[4′,3′:3,4]pyrazolo[5,1-d][1,2,5]oxadiazepine-10(2H)-carboxamide]	7.00 to 9.00
CC(C)C(=O)NCC1Cn2nc3c(c2C(=O)N(C)O1)CN(C(=O)Nc1ccc(F)c(Cl)c1)CC3 (stereo not shown) [Compound 200, N-(3-chloro-4-fluorophenyl)-4-(isobutyramidomethyl)-2-methyl-1-oxo-1,4,5,8,9,11-hexahydropyrido[4′,3′:3,4]pyrazolo[5,1-d][1,2,5]oxadiazepine-10(2H)-carboxamide]	7.00 to 9.00
CN1OC(CNC(=O)C(C)(C)C)Cn2nc3c(c2C1=O)CN(C(=O)Nc1ccc(F)c(Cl)c1)CC3 (stereo not shown) [Compound 201, N-(3-chloro-4-fluorophenyl)-2-methyl-1-oxo-4-(pivalamidomethyl)-1,4,5,8,9,11-hexahydropyrido[4′,3′:3,4]pyrazolo[5,1-d][1,2,5]oxadiazepine-10(2H)-carboxamide]	7.00 to 9.00
CCOC(=O)NCC1Cn2nc3c(c2C(=O)N(C)O1)CN(C(=O)Nc1ccc(F)c(Cl)c1)CC3 (stereo not shown) [Compound 202, ethyl ((10-((3-chloro-4-fluorophenyl)carbamoyl)-2-methyl-1-oxo-1,2,4,5,8,9,10,11-octahydropyrido[4′,3′:3,4]pyrazolo[5,1-d][1,2,5]oxadiazepin-4-yl)methyl)carbamate]	7.00 to 9.00
CN1OC(CNC(=O)OC2CC2)Cn2nc3c(c2C1=O)CN(C(=O)Nc1ccc(F)c(Cl)c1)CC3 (stereo not shown) [Compound 203, cyclopropyl ((10-((3-chloro-4-fluorophenyl)carbamoyl)-2-methyl-1-oxo-1,2,4,5,8,9,10,11-octahydropyrido[4′,3′:3,4]pyrazolo[5,1-d][1,2,5]oxadiazepin-4-yl)methyl)carbamate]	7.00 to 9.00
CN(C)C(=O)NCC1Cn2nc3c(c2C(=O)N(C)O1)CN(C(=O)Nc1ccc(F)c(Cl)c1)CC3 (stereo not shown) [Compound 204, N-(3-chloro-4-fluorophenyl)-4-((3,3-dimethylureido)methyl)-2-methyl-1-oxo-1,4,5,8,9,11-hexahydropyrido[4′,3′:3,4]pyrazolo[5,1-d][1,2,5]oxadiazepine-10(2H)-carboxamide]	7.00 to 9.00
CN1OC(CNC(=O)CC#N)Cn2nc3c(c2C1=O)CN(C(=O)Nc1ccc(F)c(Cl)c1)CC3 (stereo not shown) [Compound 205, N-(3-chloro-4-fluorophenyl)-4-((2-cyanoacetamido)methyl)-2-methyl-1-oxo-1,4,5,8,9,11-hexahydropyrido[4′,3′:3,4]pyrazolo[5,1-d][1,2,5]oxadiazepine-10(2H)-carboxamide]	7.00 to 9.00

same assay, conditions: Hepatitis B virus, HepG2.2.15, read-out: DNA EC50

Compound	pEC50
CN1OC(CNC(=O)C(F)(F)F)Cn2nc3c(c2C1=O)CN(C(=O)Nc1ccc(F)c(Cl)c1)CC3 (stereo not shown) [Compound 163, N-(3-chloro-4-fluorophenyl)-2-methyl-1-oxo-4-((2,2,2-trifluoroacetamido)methyl)-1,4,5,8,9,11-hexahydropyrido[4′,3′:3,4]pyrazolo[5,1-d][1,2,5]oxadiazepine-10(2H)-carboxamide]	7.00 to 9.00
